Measurements published in PubChem BioAssay AID1963433 (Molecular Pharmacology Branch, DTP, NCI, 2024).

System: 772245-204-R-J1-PDC complex spheroid growth
Experiment: Anticancer human tumor 772245-204-R-J1-PDC patient-derived rhabdomyosarcoma cell line growth inhibition [Asc]
Settings: for IC50: curve of first compound; for viability, T/C: stronger effect = lower value
Procedure, shortened: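 Complex spheroids combining tumor cells with HUVEC endothelial cells and human MSCs, at 37 degrees C, 5% CO2; agents tested alone or combined, half-log dilutions from at or near clinical Cmax, or 10 microM if Cmax unknown.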

[1] = second compound 0.1 µM, first compound 0.00316 µM
[2] = second compound 0.1 µM, first compound 0.01 µM
[3] = second compound 0.1 µM, first compound 0.0316 µM
[4] = second compound 0.1 µM, first compound 0.1 µM
[5] = second compound 0.1 µM, first compound 0.316 µM
[6] = second compound 0.1 µM, first compound 1 µM
[7] = second compound 0.316 µM, first compound 0.00316 µM
[8] = second compound 0.316 µM, first compound 0.01 µM
[9] = second compound 0.316 µM, first compound 0.0316 µM
[10] = second compound 0.316 µM, first compound 0.1 µM
[11] = second compound 0.316 µM, first compound 0.316 µM
[12] = second compound 0.316 µM, first compound 1 µM
[13] = second compound 1 µM, first compound 0.00316 µM
[14] = second compound 1 µM, first compound 0.01 µM
[15] = second compound 1 µM, first compound 0.0316 µM
[16] = second compound 1 µM, first compound 0.1 µM
[17] = second compound 1 µM, first compound 0.316 µM
[18] = second compound 1 µM, first compound 1 µM
[19] = second compound 3.16 µM, first compound 0.00316 µM
[20] = second compound 3.16 µM, first compound 0.01 µM
[21] = second compound 3.16 µM, first compound 0.0316 µM
[22] = second compound 3.16 µM, first compound 0.1 µM
[23] = second compound 3.16 µM, first compound 0.316 µM
[24] = second compound 3.16 µM, first compound 1 µM
[25] = second compound 10 µM, first compound 0.00316 µM
[26] = second compound 10 µM, first compound 0.01 µM
[27] = second compound 10 µM, first compound 0.0316 µM
[28] = second compound 10 µM, first compound 0.1 µM
[29] = second compound 10 µM, first compound 0.316 µM
[30] = second compound 10 µM, first compound 1 µM
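Note: compound exposure lasted seven days.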
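Throughout, for viability, T/C: 100% = DMSO vehicle control viability.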

| Structure (SMILES) | IC50 (second compound 0.1 µM) | IC50 (second compound 0.316 µM) | IC50 (second compound 1 µM) | IC50 (second compound 3.16 µM) | IC50 (second compound 10 µM) | viability, T/C [1] | viability, T/C [2] | viability, T/C [3] | viability, T/C [4] | viability, T/C [7] | viability, T/C [8] | viability, T/C [9] | viability, T/C [10] | viability, T/C [13] | viability, T/C [14] | viability, T/C [15] | viability, T/C [16] | viability, T/C [19] | viability, T/C [20] | viability, T/C [21] | further results |
| --- | --- | --- | --- | --- | --- | --- | --- | --- | --- | --- | --- | --- | --- | --- | --- | --- | --- | --- | --- | --- | --- |
| CCN1CCN(Cc2ccc(Nc3ncc(F)c(-c4cc(F)c5nc(C)n(C(C)C)c5c4)n3)nc2)CC1 + Cc1c(S(C)(=O)=O)c(-c2cc(F)cc(N3CCN(c4ccc(NS(=O)(=O)c5ccc(NC(CCN6CCC(C(=O)OCCCP(=O)(O)O)CC6)CSc6ccccc6)c(S(=O)(=O)C(F)(F)F)c5)cc4)CC3)c2)c(-c2ccc(Cl)cc2)n1C(C)C | > 1000 nM | 436 nM | 23.9 nM | < 3.16 nM | < 3.16 nM | 77.4% | 78.2% | 77.3% | 82.1% | 68.9% | 58.1% | 60.5% | 58.5% | 53.9% | 52.9% | 50% | 37.7% | 49% | 42.5% | 42% | viability, T/C [5]: 83.4%; viability, T/C [6]: 74.7%; viability, T/C [11]: 51.7%; viability, T/C [12]: 45.5%; viability, T/C [17]: 22.8%; viability, T/C [18]: 9.85%; viability, T/C [22]: 32.6%; viability, T/C [23]: 15.1%; viability, T/C [24]: 5.17%; viability, T/C [25]: 49.7%; viability, T/C [26]: 42.3%; viability, T/C [27]: 41%; viability, T/C [28]: 29.9%; viability, T/C [29]: 15.5%; viability, T/C [30]: 3.23% |
| Cn1ncnc1[C@H]1c2n[nH]c(=O)c3cc(F)cc(c23)N[C@@H]1c1ccc(F)cc1 + Cc1c(S(C)(=O)=O)c(-c2cc(F)cc(N3CCN(c4ccc(NS(=O)(=O)c5ccc(NC(CCN6CCC(C(=O)OCCCP(=O)(O)O)CC6)CSc6ccccc6)c(S(=O)(=O)C(F)(F)F)c5)cc4)CC3)c2)c(-c2ccc(Cl)cc2)n1C(C)C | > 100 nM | 3.84 nM | 1.23 nM | < 0.316 nM | < 0.316 nM | 70.5% | 63.3% | 58.9% | 55% | 53.3% | 37% | 29.2% | 23.6% | 37% | 15.5% | 25.8% | 15.2% | 33.3% | 19.7% | 12.5% | viability, T/C (second compound 0.1 µM, first compound 0.000316 µM): 73.2%; viability, T/C (second compound 0.1 µM, first compound 0.001 µM): 77.1%; viability, T/C (second compound 0.316 µM, first compound 0.000316 µM): 61.4%; viability, T/C (second compound 0.316 µM, first compound 0.001 µM): 58.8%; viability, T/C (second compound 1 µM, first compound 0.000316 µM): 47.1%; viability, T/C (second compound 1 µM, first compound 0.001 µM): 58.7%; viability, T/C (second compound 3.16 µM, first compound 0.000316 µM): 34.2%; viability, T/C (second compound 3.16 µM, first compound 0.001 µM): 44.3%; viability, T/C [22]: 10.6%; viability, T/C (second compound 10 µM, first compound 0.000316 µM): 40.9%; viability, T/C (second compound 10 µM, first compound 0.001 µM): 34.6%; viability, T/C [25]: 27.7%; viability, T/C [26]: 13.2%; viability, T/C [27]: 11.1%; viability, T/C [28]: 12% |
| O=C(c1ccc(F)c(F)c1Nc1ccc(I)cc1F)N1CC(O)([C@@H]2CCCCN2)C1 + Cc1c(S(C)(=O)=O)c(-c2cc(F)cc(N3CCN(c4ccc(NS(=O)(=O)c5ccc(NC(CCN6CCC(C(=O)OCCCP(=O)(O)O)CC6)CSc6ccccc6)c(S(=O)(=O)C(F)(F)F)c5)cc4)CC3)c2)c(-c2ccc(Cl)cc2)n1C(C)C | 673 nM | 364 nM | 350 nM | 224 nM | 342 nM | 85.4% | 85.7% | 85% | 72.4% | 76.3% | 76.7% | 64.4% | 67.5% | 61.1% | 66% | 66.4% | 69% | 57.1% | 60.7% | 56.6% | viability, T/C [5]: 80.5%; viability, T/C [6]: 34.2%; viability, T/C [11]: 55.9%; viability, T/C [12]: 19.9%; viability, T/C [17]: 50.8%; viability, T/C [18]: 13.4%; viability, T/C [22]: 59.7%; viability, T/C [23]: 45.9%; viability, T/C [24]: 8.31%; viability, T/C [25]: 40.2%; viability, T/C [26]: 44.9%; viability, T/C [27]: 57.1%; viability, T/C [28]: 78.8%; viability, T/C [29]: 52.2%; viability, T/C [30]: 4.51% |
